Among the data in ChEMBL document CHEMBL1667770, “Stereoselective first total synthesis, confirmation of the absolute configuration and bioevaluation of botryolide-E” (2011) are MIC and zone of inhibition values, retold here.

Format in all cases: functional
In assay [1] the test system is Staphylococcus aureus. In words: Antimicrobial activity against Staphylococcus aureus MTCC 96 after 24 hrs by broth dilution method. The settings on record: MTCC 96, 24 h. (In broth dilution the organism is exposed to a series of concentrations in liquid medium.)
Assay [2] has as its system Bacillus subtilis. The assay can be described thus: Antimicrobial activity against Bacillus subtilis MTCC 441 after 24 hrs by broth dilution method. Conditions: MTCC 441, 24 h.
The subject of assay [3] is Staphylococcus epidermidis. The assay can be described thus: Antimicrobial activity against Staphylococcus epidermidis MTCC 437 after 24 hrs by broth dilution method. The settings on record: MTCC 437, 24 h.
Assay [4] has as its system Escherichia coli. In words: Antimicrobial activity against Escherichia coli MTCC 443 after 24 hrs by broth dilution method. Conditions: MTCC 443, 24 h.
For assay [5], the system named is Pseudomonas aeruginosa. In words: Antimicrobial activity against Pseudomonas aeruginosa MTCC 741 after 24 hrs by broth dilution method. The settings on record: MTCC 741, 24 h.
The test system of assay [6] is Klebsiella pneumoniae. The assay can be described thus: Antimicrobial activity against Klebsiella pneumoniae MTCC 39 after 24 hrs by broth dilution method. The settings on record: MTCC 39, 24 h.
The subject of assay [7] is Rhizopus arrhizus. The assay can be described thus: Antimicrobial activity against Rhizopus oryzae MTCC 262 at 100 ug/ml after 24 to 96 hrs by agar cup method. The settings on record: read-out: IZ.
For assay [8], the system named is Aspergillus niger. The assay can be described thus: Antimicrobial activity against Aspergillus niger MTCC 1344 at 100 ug/ml after 24 to 96 hrs by agar cup method. Conditions: read-out: IZ.
The test system of assay [9] is Candida albicans. In words: Antimicrobial activity against Candida albicans MTCC 227 at 100 ug/ml after 24 to 96 hrs by agar cup method. Conditions: read-out: IZ.
Assay [10] relates to Saccharomyces cerevisiae. The assay can be described thus: Antimicrobial activity against Saccharomyces cerevisiae MTCC 171 at 100 ug/ml after 24 to 96 hrs by agar cup method. Conditions: read-out: IZ.
Assay [11] has as its system Rhizopus arrhizus. In words: Antimicrobial activity against Rhizopus oryzae MTCC 262 at 30 ug/ml after 24 to 96 hrs by agar cup method. Conditions: read-out: IZ.
Assay [12] has as its system Aspergillus niger. In words: Antimicrobial activity against Aspergillus niger MTCC 1344 at 30 ug/ml after 24 to 96 hrs by agar cup method. The settings on record: read-out: IZ.
For assay [13], the system named is Candida albicans. The assay can be described thus: Antimicrobial activity against Candida albicans MTCC 227 at 30 ug/ml after 24 to 96 hrs by agar cup method. Conditions: read-out: IZ.
For assay [14], the system named is Saccharomyces cerevisiae. In words: Antimicrobial activity against Saccharomyces cerevisiae MTCC 171 at 30 ug/ml after 24 to 96 hrs by agar cup method. The settings on record: read-out: IZ.

Values after ≈ are worked out from the molar mass of the structure shown.

For `CC(=O)O[C@H](C)C[C@H](O)[C@@H]1C=CC(=O)O1` [BOTRYOLIDE-E], the minimum inhibitory concentration (MIC) (commonly the lowest concentration found to suppress growth) came to 6.25 µg/mL (≈ 29.2 µM) in assay [1]; 25 µg/mL (≈ 117 µM) in assay [2]; 50 µg/mL (≈ 233 µM) in assay [3]; 12.5 µg/mL (≈ 58.4 µM) in [4]; 50 µg/mL (≈ 233 µM) in assay [5]; 50 µg/mL (≈ 233 µM) in assay [6]. Besides, the zone of inhibition at 100 µg/mL worked out at 14 mm in [7], 10 mm in assay [8], 12 mm in [9] and 8 mm in [10].

In the case of `Clc1ccccc1C(c1ccccc1)(c1ccccc1)n1ccnc1` [CLOTRIMAZOLE], the zone of inhibition at 30 µg/mL came out at 21 mm in assay [11], 18 mm in assay [12], 22 mm in assay [13] and 23 mm in [14].

`O=C1CN(/N=C/c2ccc([N+](=O)[O-])o2)C(=O)N1` [NITROFURANTOIN]: the MIC was determined as 50 µg/mL (≈ 210 µM) in assay [1]; 100 µg/mL (≈ 420 µM) in assay [2]; 50 µg/mL (≈ 210 µM) in assay [3]; 25 µg/mL (≈ 105 µM) in [4]; 100 µg/mL (≈ 420 µM) in assay [5]; 50 µg/mL (≈ 210 µM) in assay [6].

`CC1(C)S[C@@H]2[C@H](NC(=O)Cc3ccccc3)C(=O)N2[C@H]1C(=O)O` [PENICILLIN G]: the MIC in assay [1], in [2] and in [3] was 1.56 µg/mL (≈ 4.67 µM) throughout.

As for `CN[C@@H]1[C@H](O[C@H]2[C@H](O[C@H]3[C@H](O)[C@@H](O)[C@H](N=C(N)N)[C@@H](O)[C@@H]3N=C(N)N)O[C@@H](C)[C@]2(O)C=O)O[C@@H](CO)[C@H](O)[C@H]1O` [STREPTOMYCIN], the minimum inhibitory concentration (MIC) in assay [4], in assay [5] and in [6] was 1.56 µg/mL (≈ 2.69 µM) each time.
